Like-named read-outs stand apart in the source and are kept apart here.
What was measured:
Assay type in all cases: cell-based
[1] = system: GT1a replicon encoding NS5A mutation Y93H; assay: Transient replication assay, GT1a replicon with NS5A mutation Y93H; conditions: Hepatitis C virus
[2] = system: HCV GT 1a replicon; assay: HCV replicon assay, stable GT 1a replicon (Renilla luciferase); conditions: Hepatitis C virus, GT1A
Experimental: (§1) The activity of compounds was determined against HCV replicons representing genotypes (GT) 1a, 1b, 2a, and 3a. To generate stable Huh-7.5-based cell lines, HCV replicons were engineered to express the Renilla luciferase reporter (hRluc) fused to the neomycin phosphotransferase (Neo) gene. GT2a and GT3a HCV replicons were based on the JFH-1 subgenomic replicon (Kato et al. 2003 Gastroenterology, 125:1808-1817), in which the NS5A gene was replaced with that of strains J6 and S52 (GT2a and G3a, respectively). The activity of compounds against GT1a replicons encoding NS5A mutations (M28T, Q30R, L31M, Y93C, and Y93H) was also determined in a transient replication assay. The parental GT1a and GT2a replicons (pH/SG-Neo(L+I) and pSG-Neo-JFH1, respectively) were licensed from Apath LLC (Saint Louis, Mo.). The parental GT 1b replicon (pFKi389lucubineo_3_3′_ET) was licensed from ReBLikon GmbH (Germany). HCV replicons were constructed by standard molecular biology techniques described below. All replicon constructs were verified by restriction enzyme digestion and DNA sequencing.
pH/SG-Neo(L+I) was modified to add the firefly luciferase reporter gene and additional adaptive mutations by replacing the pH/SG-Neo(L+I) NS3-NS5A coding region with the corresponding sequence of pH77-S, creating pH/SG-lucubineo-H77S as described (Borawski J et al. 2009, J Virol 83: 10058-10074). Subsequently, the firefly luciferase-Neo cassette was replaced with the hRluc-Neo cassette. To create a unique cloning site, the NotI restriction site in NS5B was removed using QuickChange II XL Site-Directed Mutagenesis Kit (Agilent) and the following primers: NotI KO Fwd 5′-CTCAAACTCACTCCAATAGCTGCCGCTGGCCGGCTGGAC-3′(G→T mutation removing NotI site underlined) (SEQ. ID No. 1) and NotI KO Rev 5′-GTCCAGCGGGCCAGCGGCAGCTATTGGAGTGAGTTTGAG-3′(C→A mutation removing NotI site underlined) (SEQ. ID No. 2). The resulting vector, pH/SG-lucubineo-H775-NotIKO, was sequenced to confirm the NS5B gene. The hRluc-Neo cassette was PCR amplified from pF9 cytomegalovirus (CMV) hRluc-Neo Flexi(R) (Promega) using Accuprime Super Mix II (Invitrogen) and the following primers, which introduce restriction sites: […]
The amplification product was subcloned into pCR2.1-TOPO (Invitrogen). The resulting plasmid was digested with AscI and NotI, and the excised hRluc-Neo fragment was ligated using the Promega Rapid Ligation Kit (Promega) into pH/SG-lucubineo-H775-NotIKO digested with the same enzymes.
Stable HCV replicon cell lines were grown in complete media (Dulbecco's modified Eagle medium [DMEM], 2 mM L-glutamine, 0.1 mM essential amino acids, 1 mM sodium pyruvate, 10% heat inactivated fetal bovine serum) with the addition 500 μg/ml […] (G418). Huh7-lunet cells were maintained in the same medium without the addition of G418. Cells were routinely passaged at a dilution of 1:4 two times a week. The assay medium for both luciferase reporter HCV replicon and cytotoxicity assays used phenol red-free DMEM and lacked G418. For each stable replicon assay, a sixteen point half-log dilution series of compound was stamped (0.5 ul compound per well) into three replica 384-well plates, to which cells were added directly (4000 cells/well). For the transient replication assay, Huh7-lunet cells in ice-cold phosphate buffered saline (PBS) were electroporated (BioRad electroporator; 950 uF, 270V) with 10 ug purified in vitro transcribed HCV replicon RNA, followed by resuspension in complete media and plating (8000 cells/well) into compound stamped 384-well plates. Luciferase activity of compound-treated cells was measured relative to DMSO-treated cells after 72 h incubation using RENILLA-GLO™ Luciferase Assay (Promega). Cytotoxicity (CC50) in the GT1b replicon cell line was analyzed using CELL TITER-GLO™ (Promega). […]

[3] = system: GT1a replicon encoding NS5A mutation Y93C; assay: Transient replication assay, GT1a replicon with NS5A mutation Y93C; conditions: Hepatitis C virus
[4] = system: GT1a replicon encoding NS5A mutation M28T; assay: Transient replication assay, GT1a replicon with NS5A mutation M28T; conditions: Hepatitis C virus
[5] = system: GT1a replicon encoding NS5A mutation Q30R; assay: Transient replication assay, GT1a replicon with NS5A mutation Q30R; conditions: Hepatitis C virus
[6] = system: GT1a replicon encoding NS5A mutation L31V; assay: Transient replication assay, GT1a replicon with NS5A mutation L31V; conditions: Hepatitis C virus
[7] = system: HCV GT 2a-J6 replicon; assay: HCV replicon assay, GT2a chimeric replicon expressing NS5A from GT2a strain J6; conditions: Hepatitis C virus, read-out: EC50 (nM) 2a-J6
Experimental: as §1
(§2) The plasmid pSG-hRlucNeo-JFH1 was generated from pSG-Neo-JFH1 (Kato et al. 2003, Gastroentrology 125:1808-1817). A fragment containing the JFH-1 5′ NTR—hRluc-Neo gene and two unique restriction sites (AgeI and PmeI) was synthesized (Integrated DNA Technologies, Coralville, Iowa). The resulting synthetic plasmid was digested with AgeI and PmeI and the excised fragment (5′NTR-hRluc-Neo) was ligated into pSG-Neo-JFH1 digested with the same enzymes to generate pSG-hRlucNeo-JFH1. To allow expression of heterologous NS5A sequences, an NS5A shuttle vector was generated from pSG-Neo-JFH1, in which the entire coding sequence of NS5A plus the first eight codons of NS5B were replaced with an AfeI restriction site. This was done by Infusion cloning (Clontech, Mountain View, Calif.) from two PCR products that were generated using pSG-Neo-JFH1 as a template and the following primer pairs:
(§3) Underlined sequences denote regions of overlap necessary for Infusion cloning. Purified PCR products were cloned directly into an NsiI/SnaBI digested pSG-Neo-JFH1 following the manufacturer's instructions to generate pSG-Neo-JFH1-5Ashuttle. The 2023 base pair AgeI/PmeI fragment from pSG-hRlucNeo-JFH1 was then ligated into pSG-Neo-JFH1-5Ashuttle to generate pSG-hRlucNeo-JFH1-5Ashuttle. To generate the 2a-2a-(J6) and 2a-3a-(S52) NS5A chimeric replicons, the full length NS5A sequences from GT2a strain J6 (accession AF177036) and GT3a strain S52 (accession GU814263), with the addition of the first eight codons of JFH-1 NS5B (5′-TCCATGTCATACTCCTGGACCGGG-3′), were synthesized by GeneArt (Life Technologies, Carlsbad Calif.). J6 and S52 NS5A sequences were then PCR amplified from the synthetic clones using the appropriate forward primer:
(§4) Underlined sequences denote regions of overlap with pSG-hRlucNeo-JFH1-5Ashuttle necessary for Infusion cloning. Purified PCR products were directly cloned into AfeI-digested shuttle vector by Infusion cloning following the manufacturer's instructions.
(§5) Stable HCV replicon cell lines were grown in complete media (Dulbecco's modified Eagle medium [DMEM], 2 mM L-glutamine, 0.1 mM essential amino acids, 1 mM sodium pyruvate, 10% heat inactivated fetal bovine serum) with the addition 500 μg/ml […] (G418). Huh7-lunet cells were maintained in the same medium without the addition of G418. Cells were routinely passaged at a dilution of 1:4 two times a week. The assay medium for both luciferase reporter HCV replicon and cytotoxicity assays used phenol red-free DMEM and lacked G418. For each stable replicon assay, a sixteen point half-log dilution series of compound was stamped (0.5 ul compound per well) into three replica 384-well plates, to which cells were added directly (4000 cells/well). […]

[8] = system: HCV GT 3a replicon; assay: HCV replicon assay, GT2a chimeric replicon expressing NS5A from GT3a strain S52; conditions: Hepatitis C virus, read-out: EC50 (nM) 3a
Experimental: as §1, §2, §3, §4, §5

[9] = read-out: 1a EC50 (nM) 1a (H77S)
[10] = comparative table, GT 1a, read-out: EC50 (nM) 1a

Compound | EC50 ([1]; read-out: 1a EC50 (nM) Y93H) [nM] | EC50 [2, 9] [nM] | EC50 ([3]; read-out: 1a EC50 (nM) Y93C) [nM] | EC50 ([4]; read-out: 1a EC50 (nM) M28T) [nM] | EC50 ([5]; read-out: 1a EC50 (nM) Q30R) [nM] | EC50 ([6]; read-out: 1a EC50 (nM) L31V) [nM] | EC50 ([1]; read-out: EC50 (nM) 1a Y93H) [nM] | EC50 [2, 10] [nM] | EC50 ([3]; read-out: EC50 (nM) 1a Y93C) [nM] | EC50 [7] [nM] | EC50 ([4]; read-out: EC50 (nM) 1a M28T) [nM] | EC50 ([5]; read-out: EC50 (nM) 1a Q30R) [nM] | EC50 [8] [nM] | EC50 ([6]; read-out: EC50 (nM) 1a L31V) [nM]
COC(=O)N[C@H](C(=O)N1C[C@]2(CCCO2)C[C@H]1c1ncc(-c2ccc(-c3ccc4c(ccc5nc([C@@H]6CCCN6C(=O)[C@@H](NC(=O)OC)C(C)C)[nH]c54)c3)cc2)[nH]1)C(C)C [drawing 228] | 15 | 0.02 | 0.2 | 0.3 | 0.05 | 0.4 |  |  |  |  |  |  |  | 
COC(=O)N[C@H](C(=O)N1CC2(CCOCC2)C[C@H]1c1ncc(-c2ccc(-c3ccc4c(ccc5nc([C@@H]6CCCN6C(=O)[C@@H](NC(=O)OC)C(C)C)[nH]c54)c3)cc2)[nH]1)C(C)C [drawing 234] |  |  |  |  |  |  | 26 | 0.03 | 1 | 32 | 0.9 | 1 | 0.7 | 6
COC(=O)N[C@H](C(=O)N1C[C@]2(CCCCO2)C[C@H]1c1ncc(-c2ccc(-c3ccc4c(ccc5nc([C@@H]6CCCN6C(=O)[C@@H](NC(=O)OC)C(C)C)[nH]c54)c3)cc2)[nH]1)C(C)C |  |  |  |  |  |  | 9 | 0.01 | 0.2 | 27 | 0.01 | 0.03 | 1 | 0.3
COC(=O)N[C@H](C(=O)N1C[C@@]2(CCCOC2)C[C@H]1c1ncc(-c2ccc(-c3ccc4c(ccc5nc([C@@H]6CCCN6C(=O)[C@@H](NC(=O)OC)C(C)C)[nH]c54)c3)cc2)[nH]1)C(C)C [drawing 235] |  |  |  |  |  |  | 1 | 0.01 | 0.02 | 50 | 0.03 | 0.06 | 297 | 0.1
COC(=O)N[C@H](C(=O)N1C[C@@]2(CCOC2)C[C@H]1c1ncc(-c2ccc(-c3ccc4c(ccc5nc([C@@H]6CCCN6C(=O)[C@@H](NC(=O)OC)C(C)C)[nH]c54)c3)cc2)[nH]1)C(C)C [drawing 230] | 7 | 0.01 | 0.4 | 0.5 | 0.4 | 1 |  |  |  |  |  |  |  | 
COC(=O)N[C@H](C(=O)N1C[C@@]2(CCCO2)C[C@H]1c1ncc(-c2ccc(-c3ccc4c(ccc5nc([C@@H]6CCCN6C(=O)[C@@H](NC(=O)OC)C(C)C)[nH]c54)c3)cc2)[nH]1)C(C)C [drawing 231] | 5 | 0.06 | 0.2 | 14 | 3 | 46 |  |  |  |  |  |  |  | 
COC(=O)N[C@H](C(=O)N1C[C@]2(CCOC2)C[C@H]1c1ncc(-c2ccc(-c3ccc4c(ccc5nc([C@@H]6CCCN6C(=O)[C@@H](NC(=O)OC)C(C)C)[nH]c54)c3)cc2)[nH]1)C(C)C [drawing 229] | 42 | 0.02 | 0.8 | 3 | 0.8 | 11 |  |  |  |  |  |  |  | 
COC(=O)N[C@H](C(=O)N1C[C@@]2(CCCCO2)C[C@H]1c1ncc(-c2ccc(-c3ccc4c(ccc5nc([C@@H]6CCCN6C(=O)[C@@H](NC(=O)OC)C(C)C)[nH]c54)c3)cc2)[nH]1)C(C)C |  |  |  |  |  |  | 6 | 0.15 | 0.7 | 267 | 6 | 5 | 156 | 44

Reference: patent US10407445B2, “Hepatitis C virus inhibitors” (ENANTA PHARMACEUTICALS, INC., priority 2013, dated 2019)
